This is an account of results in patent publication US11998610B2, “Conjugates and methods of using the same” (Flagship Pioneering Innovations V, Inc., priority 2018, dated 2024).

A short description of data set [1]: Stability of conjugates in Simulated Intestinal Fluid (SIF). Format: in vitro ADME. The note with it: simulated intestinal fluid pH 6.7 with pancreatin, 1 μM, 37° C. The method in brief: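 Conjugates at 1 μM (from 1 mM DMSO stock) were incubated with agitation at 37° C. in freshly made SIF: FaSSIF powder plus pancreatin in pH 6.7 phosphate buffer. Aliquots taken at T0 and at regular intervals were quenched with 1 volume acetonitrile, and LC/MS gave degradation rates.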

A short description of data set [2]: In vitro Colonic Material Stability Assay. The note with it: for Assay 3 (% Remaining at 24 h): colonic material slurry, anaerobic, 1 or 10 μM. It counts as in vitro ADME. The method in brief: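 Compounds were added at 1 or 10 μM final to colonic material slurry (6.7 μL of 15% w/v slurry per 1 mL YCFAC or similar medium). Samples taken at 0–2880 min were acetonitrile-quenched and the remaining compound quantified by LC/MS.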

Data set [3] concerns WT ClbP. The experiment in a line: Assay with purified ClbP protein (LCMS). Format: biochemical, E. coli. The note with it: 20 μM WT ClbP, room temperature, 24 h.

Non-standard residues stand in square brackets, D forms with d. Residues, ends and D or L forms follow the SMILES beside them. *: point of attachment. Octanoyl = CCCCCCCC(=O)*

As to `CCCCCCCCCCCCCC(=O)N[C@H](CC(N)=O)C(=O)N[C@@H](C)CCC(=O)OC` [Example 21, Methyl (S)-4-((R)-4-amino-4-oxo-2-tetradecanamidobutanamido)pentanoate], in data set [1], the “Assay 2 (SIF) (% @ Remaining 4 hours)” value is recorded as “C (>75% of the tested compound remaining)”. For the same compound, the “Assay 3 (% Remaining at 24 h)” value in data set [2] is reported as “B (25-75% of the tested compound remaining)”. The “Selective delivery to the colon (conclusion from Table 2)” value in data set [2] (from SGF, SIF and colonic material stability) is “can be selectively delivered to the colon”. In data set [3] (100 μM compound), the “Status (compound remaining in WT ClbP reaction relative to no-enzyme control)” value is listed as “+ (between 25-75% compound remaining in the 20 μM WT ClbP reaction relative to the no-enzyme control)”.

As for `CCCCCCCC(=O)N[C@@H](CC(N)=O)C(=O)N[C@@H](C)C(=O)OC` [Example 4, Methyl octanoyl-L-asparaginyl-L-alaninate] (Octanoyl-Asn-Ala-OMe), the “Assay 2 (SIF) (% @ Remaining 4 hours)” value in data set [1] is on record as “A (<25% of the tested compound remaining)”. Moreover, the “Assay 3 (% Remaining at 24 h)” value in data set [2] is “A (<25% of the tested compound remaining)”. The “Status (compound remaining in WT ClbP reaction relative to no-enzyme control)” value in data set [3] (500 μM compound) is recorded as “− (>75% compound remaining in the 20 μM WT ClbP reaction relative to the no-enzyme control)”.

For the compound `CCCCCCCC(=O)N[C@H](CCC(N)=O)C(=O)N[C@@H](C)C(=O)OC` [Example 10, Methyl octanoyl-D-glutaminyl-L-alaninate] (Octanoyl-[dQ]-Ala-OMe), the “Assay 2 (SIF) (% @ Remaining 4 hours)” value in data set [1] is “C (>75% of the tested compound remaining)”. For the same compound, in data set [2], the “Assay 3 (% Remaining at 24 h)” value is recorded as “C (>75% of the tested compound remaining)”. Also, the “Status (compound remaining in WT ClbP reaction relative to no-enzyme control)” value in data set [3] (500 μM compound) is recorded as “− (>75% compound remaining in the 20 μM WT ClbP reaction relative to the no-enzyme control)”.
